Test results reported in the supplement of paper PMC10627819.

Assays:
S. aureus Newman [1] = experiment: fitness (endpoint OD595 vs no drug) (fraction); higher = more growth
Method in brief: (§1)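 With the first reading as background, OD595 was measured every 30 min for 14 h in 384-well plates kept at 37 °C and inoculated at OD595 0.01. TSB, LB Lennox or CY was the medium. Fitness is the optical density at the transition into stationary phase divided by the robust mean of no-drug control wells, with a cap of 1.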

S. pneumoniae D39V [2] = experiment: as above
Method in brief: as §1

B. subtilis 168 = experiment: Bliss interaction score (quartile over a dose matrix) (fitness difference); higher = more antagonism (negative = synergy)
Method in brief: (§2)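 Fitness was defined as normalised growth: OD595 at the start of stationary phase divided by the plate's robust no-drug mean and capped at 1. Single-drug fitness was inferred from combination measurements. The Bliss score is observed fitness minus the product of the single-drug values, summarised by quartiles across technical, biological and donor/recipient replicates.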

S. aureus DSM 20231 = experiment: as above
Method in brief: as §2

S. aureus Newman [3] = experiment: as above
Method in brief: as §2

S. pneumoniae D39V [4] = experiment: as above
Method in brief: as §2
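For Bliss interaction score (quartile over a dose matrix) in this document: first quartile when negative (synergy) and third quartile when positive (antagonism).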
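For fitness (endpoint OD595 vs no drug) in this document: OD595 on entry to stationary phase over no-drug wells; at most 1.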

COc1cccc2c1C(=O)c1c(O)c3c(c(O)c1C2=O)C[C@@](O)(C(=O)CO)C[C@@H]3O[C@H]1C[C@H](N)[C@H](O)[C@H](C)O1 [Doxorubicin] + C/C(=C\C(=O)OCCCCCCCCC(=O)O)C[C@@H]1OC[C@H](C[C@@H]2O[C@H]2[C@@H](C)[C@H](C)O)[C@@H](O)[C@H]1O [Pseudomonic acid]
fitness, S. aureus Newman [1], one replicate
Details	first compound 0.625 µg/mL	first compound 1.25 µg/mL	first compound 2.5 µg/mL
partner 0.0313 µg/mL	0.0603	0.0435	0.0003
partner 0.0625 µg/mL	0.0314	0.0203	0.0075
partner 0.125 µg/mL	0.0395	0.0395	0.0206

fitness, S. pneumoniae D39V [2]
Details	first compound 0.25 µg/mL	first compound 0.5 µg/mL	first compound 1 µg/mL
partner 0.03 µg/mL	0.916	0.893	0.887
partner 0.06 µg/mL	0.73	0.756	0.681
partner 0.12 µg/mL	0.484	0.435	0.381

Details	Bliss interaction score
B. subtilis 168	0.12
S. aureus DSM 20231	-0.0156
S. aureus Newman [3]	-0.0226
S. pneumoniae D39V [4]	-0.079

CO/N=C(\C(=O)N[C@@H]1C(=O)N2C(C(=O)O)=C(COC(N)=O)CS[C@H]12)c1ccco1 [Cefuroxime] + CCCCCCCCCC(=O)N[C@@H]1[C@H]([C@@H]([C@H](O[C@H]1OC2=C3C=C4C=C2OC5=C(C=C(C=C5)[C@H]([C@H]6C(=O)N[C@@H](C7=C(C(=CC(=C7)O)OC8[C@H]([C@H]([C@@H]([C@H](O8)CO)O)O)O)C9=C(C=CC(=C9)[C@H](C(=O)N6)NC(=O)[C@@H]4NC(=O)[C@@H]1C2=CC(=CC(=C2)OC2=C(C=CC(=C2)[C@H](C(=O)N[C@H](CC2=CC(=C(O3)C=C2)Cl)C(=O)N1)N)O)O)O)C(=O)O)O[C@H]1[C@@H]([C@H]([C@@H]([C@H](O1)CO)O)O)NC(=O)C)Cl)CO)O)O [Teicoplanin]
fitness, S. aureus Newman [1], one replicate, main component drawn
Details	first compound 0.04875 µg/mL	first compound 0.0975 µg/mL	first compound 0.195 µg/mL
partner 0.1562 µg/mL	≥ 1	0.968	0.888
partner 0.3125 µg/mL	0.991	0.968	0.953
partner 0.625 µg/mL	≥ 1	0.977	0.973

main component drawn
Details	Bliss interaction score
B. subtilis 168	-0.0964
S. aureus DSM 20231	0.15
S. aureus Newman [3]	0.0304
S. pneumoniae D39V [4]	-0.0352

CO/N=C(\C(=O)N[C@@H]1C(=O)N2C(C(=O)O)=C(COC(N)=O)CS[C@H]12)c1ccco1 [Cefuroxime] + CN[C@H](CC(C)C)C(=O)N[C@H]1C(=O)N[C@@H](CC(N)=O)C(=O)N[C@H]2C(=O)N[C@H]3C(=O)N[C@H](C(=O)N[C@H](C(=O)O)c4cc(O)cc(O)c4-c4cc3ccc4O)[C@H](O)c3ccc(c(Cl)c3)Oc3cc2cc(c3O[C@@H]2O[C@H](CO)[C@@H](O)[C@H](O)[C@H]2O[C@H]2C[C@](C)(N)[C@H](O)[C@H](C)O2)Oc2ccc(cc2Cl)[C@H]1O [Vancomycin]
fitness, S. aureus Newman [1], one replicate
Details	first compound 0.04875 µg/mL	first compound 0.0975 µg/mL	first compound 0.195 µg/mL
partner 0.1875 µg/mL	0.934	0.974	0.943
partner 0.375 µg/mL	0.93	0.995	0.925
partner 0.75 µg/mL	0.975	0.988	0.926

Details	Bliss interaction score
B. subtilis 168	-0.0941
S. aureus DSM 20231	0.14
S. aureus Newman [3]	0.0418
S. pneumoniae D39V [4]	-0.0597

O=C(O)c1cn(C2CC2)c2cc(N3CCNCC3)c(F)cc2c1=O [Ciprofloxacin] + CN[C@H](CC(C)C)C(=O)N[C@H]1C(=O)N[C@@H](CC(N)=O)C(=O)N[C@H]2C(=O)N[C@H]3C(=O)N[C@H](C(=O)N[C@H](C(=O)O)c4cc(O)cc(O)c4-c4cc3ccc4O)[C@H](O)c3ccc(c(Cl)c3)Oc3cc2cc(c3O[C@@H]2O[C@H](CO)[C@@H](O)[C@H](O)[C@H]2O[C@H]2C[C@](C)(N)[C@H](O)[C@H](C)O2)Oc2ccc(cc2Cl)[C@H]1O [Vancomycin]
Details	fitness
S. aureus Newman [1], first compound 0.0375 µg/mL, partner 0.1875 µg/mL	0.75
S. aureus Newman [1], first compound 0.0375 µg/mL, partner 0.375 µg/mL	0.77
S. aureus Newman [1], first compound 0.0375 µg/mL, partner 0.75 µg/mL	0.725
S. aureus Newman [1], first compound 0.075 µg/mL, partner 0.1875 µg/mL	0.718
S. aureus Newman [1], first compound 0.075 µg/mL, partner 0.375 µg/mL	0.682
S. aureus Newman [1], first compound 0.075 µg/mL, partner 0.75 µg/mL	0.663
S. aureus Newman [1], first compound 0.15 µg/mL, partner 0.1875 µg/mL	0.07
S. aureus Newman [1], first compound 0.15 µg/mL, partner 0.375 µg/mL	0.0567
S. aureus Newman [1], first compound 0.15 µg/mL, partner 0.75 µg/mL	0.0797
S. pneumoniae D39V [2], first compound 0.125 µg/mL, partner 0.03125 µg/mL	0.943
S. pneumoniae D39V [2], first compound 0.125 µg/mL, partner 0.0625 µg/mL	0.881
S. pneumoniae D39V [2], first compound 0.125 µg/mL, partner 0.125 µg/mL	0.885
S. pneumoniae D39V [2], first compound 0.125 µg/mL, partner 0.25 µg/mL	0.0814
S. pneumoniae D39V [2], first compound 0.125 µg/mL, partner 0.5 µg/mL	0.034
S. pneumoniae D39V [2], first compound 0.25 µg/mL, partner 0.03125 µg/mL	0.845
S. pneumoniae D39V [2], first compound 0.25 µg/mL, partner 0.0625 µg/mL	0.826
S. pneumoniae D39V [2], first compound 0.25 µg/mL, partner 0.125 µg/mL	0.82
S. pneumoniae D39V [2], first compound 0.5 µg/mL, partner 0.03125 µg/mL	0.58
S. pneumoniae D39V [2], first compound 0.5 µg/mL, partner 0.0625 µg/mL	0.585
S. pneumoniae D39V [2], first compound 0.5 µg/mL, partner 0.25 µg/mL	0.158
S. pneumoniae D39V [2], first compound 0.5 µg/mL, partner 0.5 µg/mL	0.0552

S. pneumoniae D39V [2], first compound 0.25 µg/mL, one replicate
Details	fitness
partner 0.25 µg/mL	0.0819
partner 0.5 µg/mL	0.0016

Details	Bliss interaction score
B. subtilis 168	-0.0465
S. aureus DSM 20231	0.0479
S. aureus Newman [3]	-0.0715
S. pneumoniae D39V [4]	-0.106

O=C(O)c1cn(C2CC2)c2cc(N3CCNCC3)c(F)cc2c1=O [Ciprofloxacin] + C/C(=C\C(=O)OCCCCCCCCC(=O)O)C[C@@H]1OC[C@H](C[C@@H]2O[C@H]2[C@@H](C)[C@H](C)O)[C@@H](O)[C@H]1O [Pseudomonic acid]
fitness, S. aureus Newman [1], one replicate
Details	first compound 0.078 µg/mL	first compound 0.156 µg/mL	first compound 0.312 µg/mL
partner 0.0313 µg/mL	0.0919	0.0675	0.0586
partner 0.0625 µg/mL	0.052	0.0404	0.0324
partner 0.125 µg/mL	0.0642	0.0505	0.0607

fitness, S. pneumoniae D39V [2]
Details	first compound 0.125 µg/mL	first compound 0.25 µg/mL	first compound 0.5 µg/mL
partner 0.03 µg/mL	0.92	0.877	–
partner 0.06 µg/mL	0.828	0.742	–
partner 0.12 µg/mL	0.444	0.551	0.393

Details	Bliss interaction score
B. subtilis 168	0.0413
S. aureus DSM 20231	0.0149
S. aureus Newman [3]	0.0616
S. pneumoniae D39V [4]	0.0559
